Patent US8324176B2, “Pyrazole derivatives, medicinal composition containing the same, medicinal use thereof, and intermediate for production thereof” (Kissei Pharmaceutical Co., Ltd., priority 2002, dated 2012)
pIC50: −log10 of the molar value.

Biological target: T1, human SGLT1 (Homo sapiens, UniProt P13866)
T1 construct: expressed in transfected cells
T1 sequence (P13866 1-664): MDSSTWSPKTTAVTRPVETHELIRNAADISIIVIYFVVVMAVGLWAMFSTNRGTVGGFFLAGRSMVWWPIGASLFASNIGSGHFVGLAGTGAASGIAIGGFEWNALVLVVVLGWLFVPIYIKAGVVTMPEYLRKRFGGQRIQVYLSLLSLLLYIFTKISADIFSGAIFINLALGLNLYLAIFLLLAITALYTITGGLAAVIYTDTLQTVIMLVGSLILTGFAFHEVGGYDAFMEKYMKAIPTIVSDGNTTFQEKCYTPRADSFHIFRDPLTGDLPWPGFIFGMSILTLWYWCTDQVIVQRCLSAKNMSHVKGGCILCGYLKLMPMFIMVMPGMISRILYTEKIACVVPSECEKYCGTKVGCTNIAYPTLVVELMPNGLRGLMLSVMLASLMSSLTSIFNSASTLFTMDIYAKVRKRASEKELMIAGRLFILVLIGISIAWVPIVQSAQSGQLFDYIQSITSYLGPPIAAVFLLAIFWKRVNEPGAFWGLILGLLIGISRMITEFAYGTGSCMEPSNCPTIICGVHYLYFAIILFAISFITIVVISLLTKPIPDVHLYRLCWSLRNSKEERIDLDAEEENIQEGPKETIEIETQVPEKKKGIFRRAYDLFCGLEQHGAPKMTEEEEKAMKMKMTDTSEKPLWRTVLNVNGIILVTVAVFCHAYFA
Assay: Assay for inhibitory effects on human SGLT1 activity (uptake of methyl-α-D-glucopyranoside in CS1-5-11D cells)
Format: cell-based
Conditions: CHO-K1 cells stably expressing human SGLT1 (CS1-5-11D); 1 mM α-MG uptake, 37° C., 1 hour
Experimental: Assay for Inhibitory Effects on Human SGLT1 Activity
1) Cloning and Construction of the Vector Expressing Human SGLT1
The cDNA library was prepared for PCR amplification by reverse transcription from total RNA deprived from human small intestine (Ori gene) using oligo-dT as a primer.
2) Establishment of Cell Line Stably Expressing Human SGLT1
The expression vector of human SGLT1 was digested by Sca I into a linear DNA. The linear DNA was transfected into CHO-K1 cells by means of lipofection (Effectene Transfection Reagent: QIAGEN). Neomycin resistant cell lines were selected by culture in the medium containing G418 (1 mg/mL, LIFE TECHNOLOGIES), and then the activity against the uptake of methyl-α-D-glucopyranoside was measured by the method described below. […] CS1-5-11D cells were cultured in the presence of G418 at 200 μg/mL.
3) Measurement of the Inhibitory Activity Against the Uptake of Methyl-α-D-glucopyranoside (α-MG)
CS1-5-11D cells were seeded into a 96-well culture plate at a density of 3×10^4 cells/well and cultured for 2 days, and were used in the uptake assay. A mixture of non-labeled (Sigma) and ^14C-labeled α-MG (Amersham Pharmcia Biotec) was added to the uptake buffer (pH 7.4: containing 140 mM sodium chloride, 2 mM potassium chloride, 1 mM calcium chloride, 1 mM magnesium chloride, 10 mM 2-[4-(2-hydroxyethyl)-1-piperazinyl]ethane sulfonic acid, and 5 mM tris(hydroxymethyl)aminomethane) at the final concentration of 1 mM. A test compound was dissolved in dimethyl sulfoxide, and then appropriately diluted with distilled water. The test compound solution was added to the uptake buffer containing 1 mM α-MG, and designated as a measurement buffer. For the control group, the measurement buffer without any test compound was prepared. For measuring the basal uptake, a basal uptake measurement buffer which contains 140 mM chorine chloride instead of sodium chloride was prepared. After removing the culture medium of CS1-5-11D cells, 180 μL of the pre-treatment buffer (the basal uptake buffer without α-MG) was added to each well and incubated at 37° C. for 10 minutes. After repeating the same treatment, the pre-treatment buffer was removed. To each well was added 75 μL of the measurement buffer or the basal uptake buffer was added and incubated at 37° C. for 1 hour. After removing the measurement buffer, cells were washed twice with 180 μL per well of the washing buffer (the basal uptake buffer containing 10 mM non-labeled α-MG). The cells were solubilized by 75 μL per well of 0.2 mol/L sodium hydroxide. The cell lysates were transferred into PicoPlates (Packard), and then added 150 μL of MicroScint-40 (Packard) and mixed. Radioactivity was measured by means of micro-scintillation counter TopCount (Packard). One hundred was set to the difference between the uptake in the control group and the basal uptake, and the uptake of methyl α-D-glucopyranoside a teach drug concentration were calculated.

Row | Compound | pIC50
1 | Cc1cc(OCCCNC(=O)NC(C)(CO)CO)ccc1Cc1c(O[C@@H]2O[C@H](CO)[C@@H](O)[C@H](O)[C@H]2O)n[nH]c1C(C)C [Example 28, 3-(β-D-Glucopyranosyloxy)-4-{[4-(3-{3-[2-hydroxy-1-(hydroxymethyl)-1-(methyl)ethyl]ureido}propoxy)-2-methylphenyl]methyl}-5-isopropyl-1H-pyrazole] | 7.05
2 | CC(C)c1[nH]nc(O[C@@H]2O[C@H](CO)[C@@H](O)[C@H](O)[C@H]2O)c1Cc1ccc(OCCCNC(C)(C)C(N)=O)cc1 [Example 48, 4-[(4-{3-[1-Carbamoyl-1-(methyl)ethylamino]propoxy}phenyl)methyl]-3-(β-D-glucopyranosyloxy)-5-isopropyl-1H-pyrazole] | 7.27
3 | Cc1cc(OCCNC(=O)NC(C)(CO)CO)ccc1Cc1c(O[C@@H]2O[C@H](CO)[C@@H](O)[C@H](O)[C@H]2O)n[nH]c1C(C)C [Example 32, 3-(β-D-Glucopyranosyloxy)-4-{[4-(2-{3-[2-hydroxy-1-(hydroxymethyl)-1-(methyl)ethyl]ureido}ethoxy)-2-methylphenyl]methyl}-5-isopropyl-1H-pyrazole] | 6.95
4 | CNC(=NC#N)NCCCOc1ccc(Cc2c(O[C@@H]3O[C@H](CO)[C@@H](O)[C@H](O)[C@H]3O)n[nH]c2C(C)C)cc1 [Example 36, 4-({4-[3-(2-Cyano-3-methylguanidino)propoxy]phenyl}methyl)-3-(β-D-glucopyranosyloxy)-5-isopropyl-1H-pyrazole] | 6.42
5 | Cc1cc(OCCCN)ccc1Cc1c(O[C@@H]2O[C@H](CO)[C@@H](O)[C@H](O)[C@H]2O)n[nH]c1C(C)C [Example 9, 4-{[4-(3-Aminopropoxy)-2-methylphenyl]methyl}-3-(β-D-glucopyranosyloxy)-5-isopropyl-1H-pyrazole] | 7.38
6 | Cc1cc(OCCCNC(=O)NC(C)(C)CO)ccc1Cc1c(O[C@@H]2O[C@H](CO)[C@@H](O)[C@H](O)[C@H]2O)n[nH]c1C(C)C [Example 29, 3-(β-D-Glucopyranosyloxy)-4-{[4-(3-(3-[2-hydroxy-1,1-di(methyl)ethyl]ureido)propoxy)-2-methylphenyl]methyl}-5-isopropyl-1H-pyrazole] | 7.72
7 | Cc1cc(OCCNCC(N)=O)ccc1Cc1c(O[C@@H]2O[C@H](CO)[C@@H](O)[C@H](O)[C@H]2O)n[nH]c1C(C)C [Example 49, 4-({4-[2-(Carbamoylmethylamino)ethoxy]-2-methylphenyl}methyl)-3-(1-D-glucopyranosyloxy)-5-isopropyl-1H-pyrazole] | 6.83
8 | Cc1cc(OCCCNC(=O)NCCO)ccc1Cc1c(O[C@@H]2O[C@H](CO)[C@@H](O)[C@H](O)[C@H]2O)n[nH]c1C(C)C [Example 30, 3-(β-D-Glucopyranosyloxy)-4-[(4-(3-[3-(2-hydroxyethyl)ureido]propoxy)-2-methylphenyl)methyl]-5-isopropyl-1H-pyrazole] | 6.59
9 | CC(C)c1[nH]nc(O[C@@H]2O[C@H](CO)[C@@H](O)[C@H](O)[C@H]2O)c1Cc1ccc(OCCCNS(N)(=O)=O)cc1 [Example 38, 3-(β-D-Glucopyranosyloxy)-5-isopropyl-4-({4-[3-(sulfamoylamino)propoxy]phenyl}methyl)-1H-pyrazole] | 6.61
10 | CC(C)c1[nH]nc(O[C@@H]2O[C@H](CO)[C@@H](O)[C@H](O)[C@H]2O)c1Cc1ccc(OCCCNC(=O)NC(CO)CO)cc1 [Example 22, 3-(β-D-Glucopyranosyloxy)-4-{[4-(3-{3-[2-hydroxy-1-(hydroxymethyl)ethyl]ureido}propoxy)phenyl]methyl}-5-isopropyl-1H-pyrazole] | 6.63
11 | Cc1cc(OCCNC(=O)NC(C)(C)C(N)=O)ccc1Cc1c(O[C@@H]2O[C@H](CO)[C@@H](O)[C@H](O)[C@H]2O)n[nH]c1C(C)C [Example 31, 4-{[4-(2-{3-[1-Carbamoyl-1-(methyl)ethyl]ureido}ethoxy)-2-methylphenyl]methyl}-3-(β-D-glucopyranosyloxy)-5-isopropyl-1H-pyrazole] | 6.78
12 | Cc1cc(OCCNC(=O)NC(C)(C)CO)ccc1Cc1c(O[C@@H]2O[C@H](CO)[C@@H](O)[C@H](O)[C@H]2O)n[nH]c1C(C)C [Example 33, 3-(β-D-Glucopyranosyloxy)-4-{[4-(2-{3-[2-hydroxy-1,1-di(methyl)ethyl]ureido}ethoxy)-2-methylphenyl]methyl}-5-isopropyl-1H-pyrazole] | 7.19
13 | Cc1cc(OCCNCCC(N)=O)ccc1Cc1c(O[C@@H]2O[C@H](CO)[C@@H](O)[C@H](O)[C@H]2O)n[nH]c1C(C)C [Example 50] | 6.80

Continued, values first:

Row | pIC50 | Compound
14 | 6.86 | Cc1cc(OCCNC(CO)CO)ccc1Cc1c(O[C@@H]2O[C@H](CO)[C@@H](O)[C@H](O)[C@H]2O)n[nH]c1C(C)C [Example 62, 3-(β-D-Glucopyranosyloxy)-4-[(4-{2-[2-hydroxy-1-(hydroxymethyl)ethylamino]ethoxy}-2-methylphenyl)methyl]-5-isopropyl-1H-pyrazole]
15 | 6.70 | CC(C)c1[nH]nc(O[C@@H]2O[C@H](CO)[C@@H](O)[C@H](O)[C@H]2O)c1Cc1ccc(OCCCNC(C)(C)CO)cc1 [Example 61, 3-(β-D-Glucopyranosyloxy)-4-[(4-(3-[2-hydroxy-1,1-di(methyl)ethylamino]propoxy)phenyl)methyl]-5-isopropyl-1H-pyrazole]
16 | 7.37 | Cc1cc(OCCCNC(C)(C)CO)ccc1Cc1c(O[C@@H]2O[C@H](CO)[C@@H](O)[C@H](O)[C@H]2O)n[nH]c1C(C)C [Example 57, 3-(β-D-Glucopyranosyloxy)-4-[(4-(3-[2-hydroxy-1,1-di(methyl)ethylamino]propoxy)-2-methylphenyl)methyl]-5-isopropyl-1H-pyrazole]
17 | 7.00 | Cc1cc(OCCCNCCO)ccc1Cc1c(O[C@@H]2O[C@H](CO)[C@@H](O)[C@H](O)[C@H]2O)n[nH]c1C(C)C [Example 58, 3-(β-D-Glucopyranosyloxy)-4-({4-[3-(2-hydroxyethylamino)propoxy]-2-methylphenyl}methyl)-5-isopropyl-1H-pyrazole]
18 | 7.66 | Cc1cc(OCCCNC(C)(C)C(N)=O)ccc1Cc1c(O[C@@H]2O[C@H](CO)[C@@H](O)[C@H](O)[C@H]2O)n[nH]c1C(C)C [Example 51, 4-[(4-{3-[1-Carbamoyl-1-(methyl)ethylamino]propoxy}-2-methylphenyl)methyl]-3-(β-D-glucopyranosyloxy)-5-isopropyl-1H-pyrazole]
19 | 6.49 | Cc1cc(OCCNCCO)ccc1Cc1c(O[C@@H]2O[C@H](CO)[C@@H](O)[C@H](O)[C@H]2O)n[nH]c1C(C)C [Example 63, 3-(β-D-Glucopyranosyloxy)-4-({4-[2-(2-hydroxyethylamino)ethoxy]-2-methylphenyl}methyl)-5-isopropyl-1H-pyrazole]
